The values below are quoted from earlier work in patent US12605354B2, “Azelaic acid esters in the treatment or prevention of dyslipidemia and associated conditions” (NEW FRONTIER LABS, LLC, priority 2020, dated 2026).

Read-outs that look alike come from different tables or passages of the source.

For data set [1] the following is noted: 15-year study [49]; cited from earlier work.
The test system of the next data set is statin-naïve individuals. The settings on record: 1 year (T2D), reference 52, cited from earlier work; for LDL/HDL, decrease: statin-naïve individuals.
Data set [2] concerns 16 subjects with Type II diabetes. The settings on record: cited from earlier work.
The conditions of data set [3]: cited from earlier work; for Hypoglycemia: reference 51.
The test system of data set [4] is 4750 prediabetic subjects. The settings on record: cited from earlier work.
[5] abbreviates: 28-day study in 16 subjects with Type II diabetes [47].
Where [6] appears, read: 8 weeks (T2D risk), reference 48.
Setting [7] is: meta-analysis, trials of at least 8 weeks, compared to placebo or no treatment [48].

As to `CN(C)C(=N)N=C(N)N` [Metformin, metformin], the “reduction of the incidence of diabetes compared to placebo” value in data set [1] is listed as 17%. In the data set with statin-naïve individuals, the “LDL/HDL, decrease” value is reported as 11.7% decrease; the “HDL, increase” value was 5% increase; the “LDL, decrease” value is 5.6% decrease. Also, the “LDL/HDL, decrease” value with statin-naïve individuals (listed as metformin) is listed as 11.7%. Moreover, the “Cholesterol/HDL, decrease” value in data set [2] (4 weeks (T2D), reference 47) is 9.2% decrease. Further, in data set [2] (setting [5]), the fasting glucose entry is recorded as “reduced fasting glucose” and the insulin levels result is “no effect on insulin levels”. Further, in data set [3] ([53]), the “patients who cannot tolerate metformin at all” value was 5% and the “users with severe gastrointestinal side effects” value is reported as 1 of 4. The Hypoglycemia result in data set [3] (multiple studies) is given as “infrequent event”. Moreover, the Hypoglycemia entry in data set [3] (multiple studies, listed as metformin) was “Neither metformin nor DEA administration as presented herein induced hypoglycemia”. Also, the Side effects result in data set [3] (multiple studies, reference 53) was “severe gastrointestinal effects”. In addition, in data set [4] (setting [6]), the “Fasting insulin, decrease” value was 14.4% decrease and the “Fasting plasma glucose, decrease” value is on record as 4.5% decrease. Further, in data set [4] (setting [7]), the “change of LDL” value is −5.6%, the “change of fasting glucose” value was −4.5%, the “change of fasting insulin” value is −14.4% and the “increase of HDL” value is 5.0%.
